Measured values reported in article PMC12005229, “Final results from the phase Ia/Ib study of the novel bromodomain and extra-terminal domain inhibitor, BI 894999, in patients with advanced solid tumors or diffuse large B-cell lymphoma” (ESMO Open, 2025).

Tests used:
patients with DLBCL = experiment: phase Ia DLBCL extension: tumor response (RECIL 2017); assay type: in vivo, human
Protocol: PFS was measured for the period from the start of treatment to the occurrence of progressive disease or death. Tumor response was measured using RECIST 1.1[28] for patients with solid tumors and RECIL 2017[29] for those with DLBCL. OS was assessed in patients with NUT carcinoma; the OS status was to continue until 12 months after the end of the study.
Supplementary Table 1. […]
• Objective response (OR), defined as complete response (CR) or partial response (PR) with tumor assessment during treatment period for each schedule according to Response Evaluation Criteria in Solid Tumors (RECIST) version 1.1. For DLBCL patients, a minor response according to Response Evaluation Criteria in Lymphoma (RECIL) 2017 was not part of an OR […]
• Progression-free survival (PFS), defined from date of start of BI 894999 to the date of objective disease progression or death, whichever was earlier, with tumor assessment every 2 cycles (every 6 weeks for Schedule B if no delays or as close as possible to the end of the second of the 2 cycles of treatment if there was a delay) during the treatment period […]
AUC0–24, area under the plasma concentration–time curve over the 24-hour dosing interval; AUCτ, ss , area under the plasma concentration–time curve over the dosing interval τ at steady state; AE, adverse event; Cmax, maximal exposure; Cma x , s s , maximal exposure at steady state; DLBCL, diffuse large B- cell lymphoma; DLT, dose-limiting toxicity; mCRPC, metastatic castration-resistant prostate cancer; NUT, nuclear protein in […]

[1] = system: HEXIM1, HIST2H2BF, and CCR2; experiment: NanoString gene expression in blood (target engagement); assay type: in vivo, human
Protocol: The evaluation of biomarkers to identify patient subgroups with differential prognosis or response to treatment was exploratory, with no formal endpoints defined. Blood samples were assessed using an in-house-designed NanoString panel (NanoString, Seattle, WA) measuring gene expression levels of HEXIM1, HIST2H2BF, and CCR2 over all time points, and postdose expression levels of HEXIM1, HIST2H2BF, and CCR2 on days 14 and 15. HEXIM1 is modulated by BET family proteins and is considered a robust pharmacodynamic marker of BET inhibition,[30] whereas HIST2H2BF and CCR2 are involved in cancer pathways.[31]^,[32]
Total RNA was extracted from whole blood using PAXgene Blood RNA kit (Qiagen, Hilden, Germany) following the manufacturer’s instructions. Total RNA was quantified by direct absorbance measurement at 260 nm using a NanoDrop Spectrophotometer (Thermo Fisher, Waltham, MA). Quality check was carried out by additional measurement of absorbance at 280 nm and calculation of the absorbance ratio OD260/OD280.
mRNA expression was assessed using a custom nCounter® (NanoString, Seattle, WA) codeset generated for the genes of interest plus housekeeping genes. Probes were hybridized to 150 ng of total RNA for 19 h at 65°C and applied to the nCounter® Preparation Station for automated removal of excess probe and immobilization of probe–transcript complexes on a streptavidin-coated cartridge. Data were collected using the nCounter® Digital Analyzer by counting the individual barcodes. Data were analyzed using an in-house analysis pipeline that follows the latest NanoString Technologies standards for the analysis of nCounter® data. The analysis pipeline includes quality checking of the raw data using the NAnostring quality Control dasHbOard (NACHO), a comprehensive method to optimize the quality control of nCounter® data.[33] The housekeeping genes ACTB, GAPDH, HPRT1, MGAT1, and TMED9 were used for normalization.

BRD4-BD1 = system: BRD4-BD1; parameters: method as in PMID 35444289; conditions: read-out: IC50, inhibition of interaction of acetylated histone H4-derived peptide with BRD4-BD1; cited from earlier work
BRD4-BD2 = system: BRD4-BD2; parameters: method as in PMID 35444289; conditions: read-out: IC50, inhibition of interaction of acetylated histone H4-derived peptide with BRD4-BD2; cited from earlier work
[2] = system: nuclear protein in testis (NUT) carcinoma xenograft models; parameters: method as in PMID 35444289; conditions: cited from earlier work

CNc1nc(-c2nc3ccc(N4CCN(C)CC4)cc3n2Cc2ccccc2)cn2c(C)nnc12 [BI 894999]
patients not assessable (patients with DLBCL; phase Ia DLBCL n = 18): 27.8%
patients with partial response (BOR) (patients with DLBCL; phase Ia DLBCL n = 18): 5.6%
patients with progressive disease (patients with DLBCL; phase Ia DLBCL n = 18): 50.0%
patients with stable disease (patients with DLBCL; phase Ia DLBCL n = 18): 16.7%
duration of response (DOR) of confirmed PR (patients with DLBCL; phase Ia DLBCL, one patient): 49 days
Best overall response: complete response (patients with DLBCL; phase Ia DLBCL, schedule B): 0 (0.0) n (%)
Best overall response: not evaluable (patients with DLBCL; phase Ia DLBCL, schedule B): 5 (35.7) n (%)
Best overall response: partial response (patients with DLBCL; phase Ia DLBCL, schedule B): 1 (7.1) n (%)
Best overall response: progressive disease (patients with DLBCL; phase Ia DLBCL, schedule B): 6 (42.9) n (%)
Best overall response: stable disease (patients with DLBCL; phase Ia DLBCL, schedule B): 2 (14.3) n (%)
Disease control (patients with DLBCL; phase Ia DLBCL, schedule B): 3 (21.4) n (%)
Objective response (patients with DLBCL; phase Ia DLBCL, schedule B): 1 (7.1) n (%)
Best overall response: complete response (patients with DLBCL; phase Ia DLBCL, schedule C): 0 (0.0) n (%)
Best overall response: not evaluable (patients with DLBCL; phase Ia DLBCL, schedule C): 0 (0.0) n (%)
Best overall response: partial response (patients with DLBCL; phase Ia DLBCL, schedule C): 0 (0.0) n (%)
Best overall response: progressive disease (patients with DLBCL; phase Ia DLBCL, schedule C): 3 (75.0) n (%)
Best overall response: stable disease (patients with DLBCL; phase Ia DLBCL, schedule C): 1 (25.0) n (%)
Disease control (patients with DLBCL; phase Ia DLBCL, schedule C): 1 (25.0) n (%)
Best overall response: complete response (patients with DLBCL; phase Ia DLBCL, total): 0 (0.0) n (%)
Best overall response: not evaluable (patients with DLBCL; phase Ia DLBCL, total): 5 (27.8) n (%)
Best overall response: partial response (patients with DLBCL; phase Ia DLBCL, total): 1 (5.6) n (%)
Best overall response: progressive disease (patients with DLBCL; phase Ia DLBCL, total): 9 (50.0) n (%)
Best overall response: stable disease (patients with DLBCL; phase Ia DLBCL, total): 3 (16.7) n (%)
Disease control (patients with DLBCL; phase Ia DLBCL, total): 4 (22.2) n (%)
Objective response (patients with DLBCL; phase Ia DLBCL, total): 1 (5.6) n (%)
target engagement (≥2 of 3 genes with twofold or greater change) ([1]; phase Ia DLBCL patient blood samples): target engagement was seen at all dose levels
HEXIM1 induction, median fold change from baseline ([1]; phase Ib, NUT carcinoma, blood): 1.93
target engagement (≥2 of 3 genes with twofold or greater change) ([1]; phase Ib, blood samples from the various solid tumor entities): all showed target engagement
IC50 (BRD4-BD1): 5 ± 3 nM
IC50 (BRD4-BD2): 41 ± 30 nM
effect in NUT carcinoma xenograft models [2]: tumor regressions
